Data taken from patent publication US20090214500A1, “PREVENTION AND TREATMENT OF OSTEOCHONDROSIS IN ANIMALS AND HUMANS” (U.S. Borax Inc., priority 2005, published 2009).
Entries after “also recorded” stand apart in the source; their conditions may differ.

Experiments:
[1] = test system: sows; assay: Preliminary pilot study, oral boron supplement to gestating and lactating sows; conditions: sows given oral 1 mg boron per kg body weight; first 600 pigs, preliminary analysis
Description: (§2) Sows were fed a standard corn-soy diet. Half of the sows received an oral administration of a boron supplement to provide 1 mg boron per kg body weight.

[2] = test system: Duroc and Yorkshire pigs; assay: Boron supplementation and OC-associated lameness in swine (Example 1); type: in vivo, pig
Description: The basal diet consisted of commercial corn-soy diet containing 10 ppm boron.
Test diet group B was fed a basal diet plus 25 mg/kg boron as sodium borate decahydrate (borax). Test diet group A was fed a basal diet plus 25 mg/kg boron as sodium borate decahydrate (borax) and 250 mg/kg ascorbic acid.
Pigs were weighed at the beginning of the study, 4 weeks later and every 3 weeks until the end of the study. Animals were scored for soundness on a 5-point scale at each weighing. (Five-point scale: 1=no soundness defects; 2=minor soundness issues but still sound enough for retention as breeding animal; 3=not sound enough for retention for breeding but still marketable; 4=unsound, likely to be rejected at slaughter; 5=severely lame, requiring euthanasia for humane reasons.) Grading was done by the caretaker and the investigator at all weighing times. An experienced independent treatment-blind rater also evaluated the soundness of each animal and the ratings he provided were compared with the ratings of the caretaker and investigator by use of Cohen's Kappa test.
The animals were housed in a modern curtain sided barn with deep straw bedding, with ad libitum access to feed and water. Waterers and feeders were on a concrete pad but the remainder of the flooring was deep straw over a ground limestone and sand base. Floor space allowances exceeded the recommendations of the Guide for the Care and Use of Agricultural Animals in Agricultural Research and Teaching, First Revised Edition, 1999. Federation of Animal Science Societies. Savoy, Ill.
The basal diet (no boron supplemented) was analysed and found to contain boron at the rate of 10 ppm which is typical for a corn-soybean meal based diet.
At the end of the study the pigs were transported to a laboratory where they were euthanized and necropsied. […]
At necropsy, samples of liver, heart, kidney, fat, skeletal muscle, proximal tibia, blood, and the rostral snout were retained and frozen at −40° C. prior to chemical analysis. All joints of the axial skeleton were evaluated for the presence of gross lesions of osteochondrosis and graded on a 5 point scale. […]
Mean joint lesion scores, growth rate and soundness scores by treatment and by factors boron and ascorbate were compared using an analysis of variance and t-test as appropriate. Soundness scores were dichotomised into binary categorical variables for lameness (soundness score>2) and for absence of defects (soundness<2), and the binary variables analysed by chi-square and logistic regression.
Tissue specimens stained with H&E were examined microscopically for the presence of lesions of osteochondrosis. […] Each tissue section was scored by a treatment-blind board-certified pathologist.

[3] = type: in vivo; conditions: one pig of about 85 pounds kept on boron 50 ppm plus ascorbate 125 ppm
Description: (§1) Boron was added to the diet of sows at 1 mg/kg body weight as boric acid. […] Among a group of 95 piglets the birth to weaning mortality was 2 piglets. The usual mortality for this farm was about 5 to 7%. These piglets remained on boron 50 ppm plus ascorbate 125 ppm. One pig was euthanized and examined at a weight of about 85 pounds. […] All bones of the appendicular skeleton were sectioned on the band saw.

[4] = test system: sows; assay: Observation in sows fed 50 ppm supplemental boron in late gestation and early lactation; conditions: sow diets with 50 ppm supplemental boron
Description: as §2

[5] = test system: crossbred pigs
[6] = test system: sows; assay: Sow and litter trial in a commercial swine operation during a PRRSV outbreak; type: in vivo, pig; conditions: sows given oral 1 mg boron per pound BW per day
Description: To test the effect of boron on sows and their litters, a trial was established in a large commercial swine operation during an outbreak of porcine viral reproductive and respiratory disease (PRRSV). Boron was administered orally to a group of 51 sows individually housed in crates at the rate of 1 mg boron per pound BW per day beginning 1 week prior to farrowing and continuing until the piglets were weaned at 14 days of age. […] Boron treatment was supplied as a single daily dosing and was discontinued at weaning. All sows were fed a standard commercial sow diet.

[7] = test system: pigs; assay: 3-NPB with or without supplemental boron in pigs, lameness and joint lesions; conditions: for Clinical Lameness Score Normal, count of pigs / Clinical Lameness Score Visible Lameness, count of pigs: 5 pigs
Description: The pigs were evaluated for lameness daily and euthanized on day 13 and the joints and other organs were examined.

[8] = test system: sows; type: in vivo
Description: as §1

[9] = test system: pigs; conditions: 50 ppm boron as boric acid
Description: An Iowa farm treated a group of about 100 pigs with 50 ppm boron as boric acid.

[10] = 50 ppm added B in diet, 28 days, 12 pens
[11] = supplemental boron 50 mg/kg vs 0, p<0.05
[12] = boron supplementation 50 ppm together with 3-NPB 1 gram daily × 10 days
[13] = boron supplementation 50 ppm, 3-NPB none

## [B] [Boron]
[1]
  piglet weight at 12 days of age: 8.5 pounds
  pre-weaning mortality: 16%
[2]; basal diet plus 25 mg/kg boron as sodium borate decahydrate (borax), with or without 250 mg/kg ascorbic acid
  joint health compared with basal diet with no supplemental boron (FIG. 1): healthier joints
[2]; growing swine, 25 mg/kg boron as borax in feed
  incidence of osteochondrosis-associated lameness: effective in reduction of the incidence of osteochondrosis-associated lameness
[2]; pigs, supplemental boron 25 ppm to 50 ppm in feed, FIGS. 1, 3 and 4
  occurrence of osteochondrosis (OC): reduction in the occurrence of osteochondrosis; also recorded: significant reduction in the occurrence of OC
[2]; rapidly growing swine, 25 mg/kg boron as borax in feed, 25 mg/kg
  soundness scores / lameness associated with early rapid growth (FIG. 3): useful in cartilage protection and prevention of lameness; also recorded: reduction of soundness scores associated with early growth
[3]
  bone mineralization at necropsy: excellent mineralization
  joint abnormalities at necropsy: No abnormalities were observed in any of the joints
[4]
  piglet quality as assessed by uniformity, growth, and general thrift: improved
  pre-weaning piglet mortality: reduced
[5]; [10]
  Average daily gain (grams per day): 549 grams per day
  Avg. daily feed intake: 1270
  Feed Conversion Ratio (feed/gain): 2.32 feed/gain
[5]; boron added to the diet, compared with no added boron
  reduction of phosphorus excretion per unit of production: 15%
[5]; [11]
  effect on average daily gain: increased
  effect on fecal phosphorus excretion per unit of growth: reduced
  effect on feed conversion ratio: improved
  effect on phosphorus digestibility: improved
[5]; supplemental boron 50 mg/kg vs 0, p>0.20
  effect on daily feed intake: not significantly modified
[6]
  effect on litter size at birth: no effects
  effect on piglet birth weight: no effects
  likelihood to conceive relative to control sows: 1.2 times
  return to estrus, average days quicker than control sows: 1.6 days
[6]; from 1 week prior to farrowing until weaning
  piglet mortality: 15.2%
[6]; from 1 week prior to farrowing until weaning at 14 days
  piglet weight at 12 days of age: 9.01 lbs
[7]; [12]
  Clinical Lameness Score Normal, count of pigs: 4
  Clinical Lameness Score Visible Lameness, count of pigs: 1
[7]; [13]
  Clinical Lameness Score Normal, count of pigs: 5
  Clinical Lameness Score Visible Lameness, count of pigs: 0
[7]; chi-square analysis
  effect of supplemental boron in preventing the lameness induced by 3-NPB: significant effect; also recorded: could be prevented
[7]; supplemental boron 50 ppm when 3-NPB was provided
  pigs that developed lameness: one in 5
[7]; supplemental boron, no 3-NPB
  prevalence and severity of osteochondrosis lesions in shoulder, stifle, hock and elbow joints: lowest prevalence of lesions and the lowest severity

## OB(O)O [boric acid]
[8]; pig, in vivo
  birth to weaning mortality: 2 piglets
[8]; sows, boron 1 mg/kg body weight as boric acid in diet
  outcome of three noticeably and seriously lame sows: became perfectly sound
[9]
  growth rate: excellent growth rate
[9]; estimated previous rate about 25 to 30%
  lameness/unsoundness rate in the test group: zero
[9]; about 100 pigs
  pigs developing signs of lameness or unsoundness: None
